Reference: PMC11314343, “Improving the Solubility, Stability, and Bioavailability of Albendazole through Synthetic Salts” (Molecules, 2024)
≈ marks a conversion by molar mass, not a printed value.

Tests used:
[1] = set-up: method as in PMID 12527162; settings: cited from earlier work
[2] = set-up: method as in PMID 18938096; settings: cited from earlier work
[3] = Intrinsic dissolution rate (IDR); type: physicochemical; settings: 37 °C
Experimental: The powdered sample (140 mg) was measured and compacted to a tablet hardness of 5 Kg by a tester, employing a small manual tablet press. […] Then, 0.3 mL of the solution was withdrawn, at 1 min intervals, and subsequently subjected to centrifugation (15,000 rpm, 3 min). Afterward, it was subjected to double dilution with methanol and analyzed for the presence of the drug using HPLC.

[4] = water at 25 °C; cited from earlier work
[5] = Solid-state stability, influencing factor testing (strong light, high humidity, elevated temperature); type: physicochemical; settings: for stability under influencing factor conditions: 4500 ± 500 lux; for stability under influencing factor conditions / crystal transformation (PXRD): 92.5 ± 5% RH, 50 ± 2 °C; for crystal transformation (PXRD): strong light 4500 ± 500 lux, 0, 5, 10 days; for change of IDR on the 5th and 10th days compared to day 0: strong light, high humidity and high temperature
Experimental: Influencing factor testing included a strong light irradiation test, a high-humidity test, and an elevated temperature test. The strong light irradiation test involved placement of the sample opening under a light with an intensity of 4500 ± 500 lux. The high-humidity test involved placement of the sample in a constant-humidity container at 25 °C and 92.5% RH (saturated potassium nitrate solution). The high-temperature test involved placing the sample in a DHG-9070A constant-temperature oven (Shanghai Yiheng Technology Instrument Co., Ltd., Shanghai, China), set at 50 °C. Samples were taken on the 0th, 5th, and 10th days, and the crystal structure and dissolution of the samples were assessed for significant differences based on PXRD and IDR, as outlined above.

[6] = Dynamic vapor sorption (DVS), moisture adsorption isotherms; type: physicochemical; settings: for water adsorption: 25 °C, at 90% RH
Experimental: The moisture sorption characteristics of all specimens were assessed at a temperature of 25 °C using an automated dynamic vapor sorption analyzer (Surface Measurement Systems, Wembley, UK). Prior to the sorption examination, the samples were equilibrated at a humidity level of 0% relative humidity (RH) to remove any adsorbed moisture. The specimens underwent a gradual variation in relative humidity, transitioning from 0 to 90% RH at intervals of 10% RH. Humidity was adjusted by increasing it by +10% RH after 6 h or upon achieving the equilibrium condition. The equilibrium condition was met when there was a <0.002% change in mass per minute within a span of 10 min. Upon completion of the sorption sequence, all samples were subjected to drying at 0% RH, which was stopped when the Δm/Δt was less than 0.002%/min within 10 min.

[7] = Pharmacokinetic comparison in Wistar rats after oral administration
Experimental: In vivo pharmacokinetic examination of albendazole and albendazole salts was performed in a half-male and half-female group of Wistar rats (n = 6), with an average body weight of 200 ± 20 g. The rats were fasted for one night before administration of albendazole at a dose of 25 mg/kg by gavage. Blood sampling was conducted by placing a jugular vein catheter surgically the day before administration. […] The tubes were centrifuged at 13,000× g for 10 min, and the upper plasma was collected and stored in an ultra-low-temperature freezer at −80 °C. Samples were processed by obtaining 100 μL of plasma; then, 400 μL of methanol was added, the samples were vortexed for 1 min, and they were centrifuged at 13,000× g for 5 min. Finally, 300 μL of the supernatant was obtained. A mixture of 6 μL of 10 μG/mL toluidazole internal standard solution was added to the supernatant. After 1 min of vortexing, the samples were centrifuged at 13,000× g for 5 min. The supernatant was then filtered through a microporous filter membrane before employing UPLC-HR-ESI-MS to assess the drug content.
The plasma concentrations of ABZ were assessed using a Dionex Ultimate 3000 RSLC system (Thermo Fisher, Waltham, MA, USA) equipped with an ACQUITY UPLC BEH C18 Column (130 Å, 150 mm × 2.1 mm × 2.6 μm) at a column temperature of 30 ± 1 °C. […] The MS analysis was conducted using a Q-Orbitrap MS coupled with heated electrospray ionization (HESI, Washington, DC, USA). The MS analysis was performed in full MS-ddMS^2 mode, with damping gas in the C-trap and nitrogen used to stabilize the spray. The auxiliary gas heater and capillary temperatures were established and maintained at 350 °C and 320 °C, respectively. In the negative mode, a spray voltage of 3.0 kV and an S-lens RF level of 60 V were employed. The full MS-ddMS^2 scan range was from 150.0000 to 1000.0000 m/z, and the precise molecular weight […] was employed for qualitative analysis. The corresponding peak area was utilized for quantitative analysis, and the MS^2 fragments were employed in further qualitative analysis.
The pharmacokinetic parameters were examined through non-compartment model analysis using DAS 2.0.

[8] = Accelerated stability testing; type: physicochemical; settings: for stability under accelerated test conditions: 40 °C/75 ± 5% RH; for PXRD spectra under accelerated stability conditions: 40 ± 2 °C/75 ± 5% RH, 0, 3, 6 months
Experimental: Accelerated testing was utilized to contrast the stability of ABZ and its salts in the solid state. The solid variations were placed in an airtight container at 40 ± 2 °C with a humidity level of 75 ± 5% RH, and specimens were harvested at the intervals of 0, 3, and 6 months. PXRD analysis was used to ascertain whether there were any substantial alterations in dissolution properties and the crystal structure of the sample.

[9] = both, Wistar, rat, plasma, po, 25 mg/kg
[10] = Wistar rats, oral 25 mg/kg, plasma ABZ

Row | Compound | IDR ([3]; pH 2 buffer) | IDR ([3]; pH 7.4 buffer) | water adsorption [6] | stability under influencing factor conditions [5] | crystal transformation (PXRD) [5] | change of IDR on the 5th and 10th days compared to day 0 [5] | Cmax increase compared to ABZ ([7]; Wistar rats, oral 25 mg/kg) | MRT(0–24) ([7]; Wistar rats, oral 25 mg/kg) | MRT(0–∞) ([7]; Wistar rats, oral 25 mg/kg) | T1/2 ([7]; Wistar rats, oral 25 mg/kg) | Tmax ([7]; Wistar rats, oral 25 mg/kg) | AUC(0–24) [7, 10] | AUC(0–∞) [7, 10] | Cmax [7, 10] | stability under accelerated test conditions [8] | PXRD spectra under accelerated stability conditions [8] | further results
1 | CCCSc1ccc2nc(NC(=O)OC)[nH]c2c1 [ABZ, Albendazole] | 0.0096 mg·cm^−2·min^−1 | 0.0004 mg·cm^−2·min^−1 | 3.86% |  |  |  |  |  |  |  |  |  |  |  |  |  | log P [1]: 2.54; oral bioavailability in humans [2]: less than 5%; solubility in water [4]: 0.0228 mg/mL (≈ 85.9 µM); change of IDR after being placed at 50 °C ([5]; 50 °C, 5 and 10 days vs day 0): increased; half-life ([7]; both, Wistar, rat, in vivo, po, 25 mg/kg): 359 ± 196 min; AUC(0-inf) [7, 9]: 374 ± 136 ng·h/mL; AUC(0-t) [7, 9]: 352 ± 147 ng·h/mL; Cmax [7, 9]: 69.6 ± 51.7 ng/mL; MRT inf [7, 9]: 9.19 ± 5.1 h; MRT last [7, 9]: 7.07 ± 2.27 h; Tmax [7, 9]: 2.54 ± 1.57 h
2 | CCCSc1ccc2[nH]c(NC(=O)OC)nc2c1.O=C(O)C(O)C(O)C(=O)O [ABZ-DTA, albendazole D-tartrate] | 0.0730 mg·cm^−2·min^−1 | 0.0008 mg·cm^−2·min^−1 | 70.15% | remained stable for 10 days | not observed | no statistically significant difference | ~4.6 times | 6.67 ± 0.61 h | 8.92 ± 1.51 h | 6.11 ± 1.21 h | 1.25 ± 0.61 h | 1835.37 ± 379.84 ng/mL/h | 1955.94 ± 431.79 ng/mL/h | 322.68 ± 68.67 ng/mL | remained stable for 6 months | unchanged | weight increase by water adsorption ([6]; sharp increase when the RH reached 60%): 47.59%
3 | CCCSc1ccc2[nH]c(NC(=O)OC)nc2c1.O=C(O)C=CC(=O)O [ABZ-FMA, albendazole fumarate] | 0.0328 mg·cm^−2·min^−1 | 0.0009 mg·cm^−2·min^−1 | 6.72% | remained stable for 10 days | not observed | no statistically significant difference | approximately 3.8 times | 6.41 ± 0.66 h | 17.53 ± 15.90 h | 14.07 ± 14.37 h | 1.67 ± 1.17 h | 1205.56 ± 855.61 ng/mL/h | 1975.42 ± 1856.96 ng/mL/h | 260.58 ± 179.73 ng/mL | remained stable for 6 months | unchanged | 
4 | CCCSc1ccc2[nH]c(NC(=O)OC)nc2c1.Cl [ABZ-HCl, albendazole hydrochloride] | 0.1128 mg·cm^−2·min^−1 | 0.0041 mg·cm^−2·min^−1 | 37.65% | remained stable for 10 days | not observed | no statistically significant difference | ~6.9 times | 7.66 ± 2.08 h | 24.65 ± 33.76 h | 16.85 ± 23.17 h | 1.21 ± 0.68 h | 3089.28 ± 1228.16 ng/mL/h | 5371.96 ± 4618.85 ng/mL/h | 478.96 ± 138.62 ng/mL | remained stable for 6 months | unchanged | 
